This note sets out measurements from PMC4373826, “Antiviral Effect of Methylated Flavonol Isorhamnetin against Influenza” (PLoS ONE, 2015).

In series [1] the test system is influenza A/PR/8/34 (H1N1). The series can be described thus: in vitro. As to conditions: dog, SI (selective index, CC50/EC50).
Series [2] has as its system influenza A/PR/8/34 (H1N1). Kind of series: microbe, parasite or virus in culture. Conditions: MDCK.
Series [3] deals with influenza A/PR/8/34 (H1N1). Kind of series: In vivo antiviral assay in infected mice. Set-up: species or system C57BL/6 mice. The procedure: Six-week-old female C57BL/6 mice purchased from KOATECH (Pyeongtaek, South Korea) infected with the PR8 influenza strain (A/PR/8/34, H1N1). After anesthesia, mice were inoculated with 4.25 log10EID50/mL (5 MLD50/mice) in 30 μL sterile PBS via the intranasal route. Two hours post-infection, each group (13 mice) received the following compounds: (1) Tamiflu capsules were dissolved in PBS at a concentration of 10mg/kg and then centrifuged at 1,000rpm/10minutes for removal of the filler. From this solution 200 μL was administered per day orally for 5 days, or (2) flavonoid (Isorhamnetin) was initially dissolved in 0.2% DMSO and then diluted in PBS to a final concentration of 1 mg/kg and less than 0.2% DMSO. This mixture mixed will by vortex and 30 μL of this mixture was administered per day via the intranasal route for 5 days.
One week after infection, the lungs of 3 mice per group were collected for the virology analysis. Lung tissues were excised, homogenized using a homogenizer (Tissue Lyser, Qiagen, Valencia, CA, USA), and centrifuged (2,000 g for 5 min). Ten-fold serial dilutions of the supernatant from the lung homogenate samples were subjected to the virology assays for virus titer determination. Lung homogenates were injected into the allantoic sac of 10-day-old embryonated eggs, which were incubated at 37°C for 48 hr, after which the allantoic fluid was harvested. The virus titer in the allantoic fluid was assessed using the HA assay. The virus titer (EID50/mL) in the fluid was calculated based on the method of Reed and Muench. For the assessments of body weight and survival rate, mice were observed daily for 14 days and monitored for clinical signs.

In a further series the test system is LC3B. Kind of series: Western blot for LC3B lipidation. Type of series: cell-based, canine. Conditions: 50 μM; post-treatment. An excerpt:
Autophagy can also be measured by changes in LC3B localization, because the degree of conversion of LC3B-I to LC3B-II provides an indicator of autophagic activity. Western blotting detected LC3B as 2 bands: cytosolic LC3B-I and membrane-bound LC3B-II (which is bound to the autophagosome membrane). The molecular weight of LC3B-II is greater than that of LC3B-I. However, due to its hydrophobicity, LC3B-II migrates faster in SDS-PAGE, and therefore, has a lower apparent molecular weight.
To prepare whole-cell extracts, cells were washed 3 times using cold PBS, scraped from the dishes, and suspended in protein extraction buffer containing 1% Triton X-100 (Amresco), 100 mM Tris-HCl, 10 mM NaCl, 10% glycerol, 1 mM sodium orthovanadate (Sigma-Aldrich), 50 mM sodium fluoride (Sigma-Aldrich), and 1 mM phenylmethylsulfonyl fluoride (PMSF; Sigma-Aldrich). After incubation on ice for 30 min, lysates were centrifuged and proteins in the supernatants were quantified using the Bradford Protein Assay Reagent (Bio-Rad). Protein samples were separated via 10% SDS-PAGE and transferred to nitrocellulose membranes ([…]; Protran, Newton, NJ, USA). The membranes were blocked using 5% nonfat dry milk and 0.1% Tween-20 in Tris-buffered saline and probed with the primary antibody. […]
A general note: In western blotting, separated proteins are transferred to a membrane and probed.

Series [4] concerns influenza A/PR/8/34 (H1N1). Type of series: cell-based, influenza A virus. As to conditions: post-treatment 48 hr.
The target of series [5] is T1, influenza virus neuraminidase (Influenza A virus, UniProt P03468).
T1 construct: mixed with an equal volume of the virus solution (50 μL); host or cells: whole virus suspension
Kind of series: Neuraminidase inhibition (NAI) assay. In kind it is biochemical. Conditions: 50 μM. The procedure:
The neuraminidase inhibition assay was carried out to examine the inhibitory effect of the tested flavonoids on influenza virus neuraminidase activity as described previously. The flavonoid compounds were used at concentrations of 10 μM, 50 μM, and 100 μM. Tamiflu, a specific NA blocker, was used as a control with a dose of 1 μM. This assay was conducted in 96-well plates; each flavonoid concentration (50 μL) was mixed with an equal volume of the virus solution (50 μL) using reaction buffer (sodium acetate buffer 150 mM, pH 7, and 1 mM calcium chloride) and incubated for 30 minutes at 37°C. For initiation of the enzymatic reaction, we added 100 μL of the substrate solution (4-MU-NANA; (2′-(4-methylumbelliferyl)-α-d-N-acetylneuraminic acid, sodium salt hydrate; Sigma-Aldrich) that dissolved in the enzyme buffer [33 mM 2-(N-morpholino) ethanesulfonic acid (MES), pH 6.5, and 4 mM CaCl2] to the final concentration of 100 μM to the flavonoids and the virus mixture (100 μL). This reaction mixture was protected from light and incubated at 37°C for 2 hr under shaking condition. For stopping of the reaction, we added the stop solution (150 μl of 0.014 N NaOH in 83% ethanol) to each well. The fluorescence of the released 4-methylumbelliferone fluorescence was measured using a fluorescence plate reader (Molecular Devices, Sunnyvale, CA, USA) (excitation 365 nm, emission 460 nm). […]

The mark [6] stands for this setting: infected mice, abstract says oral administration.

A value given as a limit tells only on which side of the number the result lay.

T1 sequence (P03468 whole entry): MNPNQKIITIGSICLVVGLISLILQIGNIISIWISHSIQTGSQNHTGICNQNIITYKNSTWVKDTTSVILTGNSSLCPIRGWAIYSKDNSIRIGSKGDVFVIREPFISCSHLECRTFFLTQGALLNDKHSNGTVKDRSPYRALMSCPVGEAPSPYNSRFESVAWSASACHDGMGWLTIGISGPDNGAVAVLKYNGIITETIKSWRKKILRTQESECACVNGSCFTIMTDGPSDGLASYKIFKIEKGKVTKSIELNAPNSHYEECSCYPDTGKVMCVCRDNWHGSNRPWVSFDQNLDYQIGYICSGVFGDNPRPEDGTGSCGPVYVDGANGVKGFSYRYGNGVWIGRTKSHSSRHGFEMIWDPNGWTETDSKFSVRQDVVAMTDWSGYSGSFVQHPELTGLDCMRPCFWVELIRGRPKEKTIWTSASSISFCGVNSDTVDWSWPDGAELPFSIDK

The term EC50 denotes the concentration that produces a half-maximal response. `COc1cc(-c2oc3cc(O)cc(O)c3c(=O)c2O)ccc1O` [Isorhamnetin, isorhamnetin]: the selectivity ratio is over 9 in series [1] (Co-treatment (2 hr)) and over 12 in series [1] (Post-treatment). The EC50 in series [2] (0.5 h, Co-treatment (0.5 hr)) is 76 µM; in series [2] (1 h, Co-treatment (1 hr)), 42 µM; in series [2] (2 h, Co-treatment (2 hr)), under 30 µM; in series [2] (48 h, Post-treatment), 23 µM; in series [2] (Pre-treatment (1 hr)), 51 µM; in series [2] (Pre-treatment (12 hr)), 65 µM. The EC50 in series [2] (Pre-treatment (24 hr)) came out at 88 µM. Further, in series [3] (data not shown), the “toxic effect in mice” value is “no significant toxic effect”. In series [3] (infected mice, observed 14 days), the survival rate is given as 70–80%. Moreover, the “decrease in body weight loss” value in series [3] (setting [6]) is on record as 25%. Also, the “decrease in lung virus titer” value in series [3] (setting [6]) came out at 2 folds. In addition, the body weight loss entry in series [3] (vs PBS control group, 14 days) is on record as “reduced body weight loss”. For the same compound, in the series on LC3B, the “lipidation of LC3B-II” value is recorded as “significantly suppressed”. For the same compound, the “virus titer in HA assay (virus yield reduction)” value in series [4] is “almost completely suppressed”. For the same compound, the NA activity entry in series [5] is “significantly inhibited”.
